Laboratory results as given in patent publication US20150266850A1 (E.I.DU PONT DE NEMOURS AND COMPANY, priority 2012, published 2015).

Legend:
[1] = Photostability Example: aqueous photolysis under xenon arc lamp simulating natural sunlight for 24 hours, percent remaining relative to dark controls; format: physicochemical; details: 0.670 μg/mL in 80/20 10 mM pH 7 phosphate buffer/acetonitrile, xenon arc lamp 24 hours
Procedure: Aqueous photolysis data is a simple proxy for photostability under field conditions. The following aqueous photolysis data supports the enhanced photostability of the tolyl fungicides of the present invention.
Test compound (0.670 μg/mL) dissolved in 80/20 10 mM pH 7 phosphate buffer/acetonitrile is added to 2-mL borosilicate glass HPLC vials. The addition of 20% acetonitrile is intended to ensure solubility of compounds with low aqueous solubility. Samples are exposed to light in an Atlas Ci65 Burner photolysis chamber fitted with a xenon arc lamp (6500 W) to simulate natural sunlight for 24 hours and compared with samples wrapped in aluminum foil to protect them from light under the same conditions. The 24-hour irradiation is equivalent to ˜2.6 days of average Delaware summer sunlight exposure. Samples are analyzed by HPLC and results are reported as percent remaining based on peak area relative to the dark controls.

[2] = system: Erysiphe graminis f. sp. tritici; assay: Test A: wheat powdery mildew, preventive spray on wheat seedlings, visual disease rating; format: in vivo; details: Blumeria graminis, 192 h, 100 = 100% disease control
Summary of the method: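 Preventive test: seedlings inoculated with Erysiphe spores one day after run-off spraying at 200 ppm (or 40/50 ppm) in acetone/water plus surfactant. Kept 8 days at 20° C; visual rating as % disease control versus untreated (100 = full control).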

[3] = system: Puccinia recondita f sp. tritici; assay: Test B: wheat leaf rust, preventive spray on wheat seedlings, visual disease rating; format: in vivo; details: 192 h, 100 = 100% disease control
Summary of the method: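 Preventive spray to run-off on seedlings, one day before spore inoculation; 24 h in saturated atmosphere at 20° C, then 7 days in a 20° C growth chamber before visual rating (100 = full control, 0 = none, relative to controls). Standard rate 200 ppm, equal to 800 g/ha, some at 40 or 50 ppm; compounds in acetone/water with 250 ppm surfactant.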

Septoria tritici = assay: Test C: wheat leaf blotch, preventive spray on wheat seedlings, visual disease rating; format: in vivo; details: Zymoseptoria tritici, 504 h, 100 = 100% disease control
Summary of the method: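 Preventive run-off spray on seedlings at 200 ppm (equal to 800 g/ha), some at 40 or 50 ppm, in acetone/water 50/50 plus 250 ppm Trem® 014. Spore inoculation one day later; 24° C. saturated for 48 h, 20° C. chamber 19 days. Disease scored visually as % control relative to controls.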

Septoria nodorum = assay: Test D: wheat glume blotch, preventive spray on wheat seedlings, visual disease rating; format: in vivo; details: Parastagonospora nodorum, 216 h, 100 = 100% disease control
Summary of the method: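 Disease control (0 = none, 100 = full, relative to controls) was scored visually on wheat seedlings 7 days after a 48 h saturated-humidity incubation at 20° C following Septoria nodorum inoculation. Inoculation came one day after a run-off spray at 200 ppm (some 40 or 50 ppm) in acetone/water plus surfactant.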

Botrytis cinerea = assay: Test E: tomato botrytis, preventive spray on tomato seedlings, visual disease rating; format: in vivo; details: Botrytis cinerea, 120 h, 100 = 100% disease control
Summary of the method: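 Preventive test: seedlings inoculated with Botrytis cinerea spore suspension one day after run-off spraying (200 ppm ≈ 800 g/ha; some 40 or 50 ppm) in acetone/water with 250 ppm surfactant. Incubation 48 h at 20°C saturated humidity, then 3 days at 27°C; disease control rated visually (0–100%) relative to controls.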

melting point	SMILES	% Cmpd Remaining [1]	pest or weed control at 200 ppm [2]	pest or weed control at 200 ppm [3]	pest or weed control at 200 ppm (Septoria tritici)	pest or weed control at 200 ppm (Septoria nodorum)	pest or weed control at 200 ppm (Botrytis cinerea)	pest or weed control at 40 ppm [2]	pest or weed control at 40 ppm [3]	pest or weed control at 40 ppm (Septoria tritici)	pest or weed control at 40 ppm (Septoria nodorum)	pest or weed control at 40 ppm (Botrytis cinerea)
126 to 127 °C	COC(=O)NCc1cc(-n2ccc(-c3ccc(Cl)cc3OC)n2)ccc1C [Compound 11, methyl N-[[5-[3-(4-chloro-2-methoxyphenyl)-1H-pyrazol-1-yl]-2-methylphenyl]-methyl]carbamate]		100%	100%	100%	100%	56%					
101 to 103 °C	COC(=O)NCc1cc(-n2ccc(-c3ccc(Cl)cc3Cl)n2)ccc1C [Compound 31, methyl N-[[5-[3-(2,4-dichlorophenyl)-1H-pyrazol-1-yl]-2-methylphenyl]-methyl]carbamate]		100%	100%	100%	100%	16%					
145 to 148 °C	COC(=O)NCc1cc(-c2ncn(-c3ccc(OC)cc3Cl)n2)ccc1C [Compound 78]							99%	100%	93%	100%	68%
164 to 166 °C	COC(=O)NCc1cc(-c2ncn(-c3ccc(OC)cc3F)n2)ccc1C [Compound 79]							100%	100%	95%	100%	76%
156 to 159 °C	COC(=O)NCc1cc(-c2ncn(-c3ccc(F)cc3F)n2)ccc1C [Compound 117]		100%	100%								
148 to 151 °C	COC(=O)NCc1cc(-c2ncn(-c3ccc(C)cc3C)n2)ccc1C [Compound 118, methyl N-[[5-[1-(2,4-dimethylphenyl)-1H-1,2,4-triazol-3-yl]-2-methylphenyl]methyl]carbamate]		99%	100%								

The next lines start with the compound.

SMILES	melting point	% Cmpd Remaining [1]	pest or weed control at 200 ppm [2]	pest or weed control at 200 ppm [3]	pest or weed control at 200 ppm (Septoria tritici)	pest or weed control at 200 ppm (Septoria nodorum)	pest or weed control at 200 ppm (Botrytis cinerea)	pest or weed control at 40 ppm [2]	pest or weed control at 40 ppm [3]	pest or weed control at 40 ppm (Septoria tritici)	pest or weed control at 40 ppm (Septoria nodorum)	pest or weed control at 40 ppm (Botrytis cinerea)
COC(=O)NCc1cc(-n2ccc(-c3ccc(OC)cc3C)n2)ccc1C [Compound 10, methyl N-[[5-[3-(4-methoxy-2-methylphenyl)-1H-pyrazol-1-yl]-2-methylphenyl]-methyl]carbamate]	97 to 99 °C	97%	100%	100%	100%	100%	97%					
COC(=O)NCc1cc(-n2ncc(-c3ccc(OC)cc3OC)n2)ccc1C [Compound 17, methyl N-[[5-[4-(2,4-dimethoxyphenyl)-2H-1,2,3-triazol-2-yl]-2-methylphenyl]methyl]carbamate]	132 to 135 °C	30%	100%	100%	100%	100%	33%					
COC(=O)NCc1cc(-c2ccn(-c3ccc(OC)cc3C)n2)ccc1C [Compound 18, methyl N-[[5-[1-(4-methoxy-2-methylphenyl)-1H-pyrazol-3-yl]-2-methylphenyl]methyl]carbamate]	117 to 120 °C	98%	100%	100%	100%		44%					
COC(=O)NCc1cc(-n2ccc(-c3ccc(OC)cc3OC)n2)ccc1C [Compound 23, methyl N-[[5-[3-(2,4-dimethoxyphenyl)-1H-pyrazol-1-yl]-2-methylphenyl]methyl]carbamate]		54%	100%	100%	100%	100%	66%					
COC(=O)NCc1cc(-c2ncn(-c3ccc(OC)cc3OC)n2)ccc1C [Compound 54]	174 to 177 °C							99%	100%	49%	100%	49%
COC(=O)NCc1cc(-c2ncn(-c3ccc(Cl)cc3Cl)n2)ccc1C [Compound 119]	152 to 155 °C		99%	100%								
